Results from publication PMC9688530, “Development of Ic-ELISA and Colloidal Gold Lateral Flow Immunoassay for the Determination of Cypermethrin in Agricultural Samples” (Biosensors, 2022).
≈ marks a conversion by molar mass, not a printed value.

Legend:
[1] = test system: anti-CYP mAb 2G9A8; experiment: homologous ic-ELISA, hapten 1 coating antigen, mAb 2G9A8; type: binding, mouse; settings: hapten 1 as coating antigen
Procedure: (§1) The ic-ELISA procedure was executed according to previous studies. Each well of the ELISA plate was coated with 100 μL of coating antigen diluted with carbonate buffer (0.05 mol/L, pH 9.6) at 4 °C overnight. After washing three times with phosphate-buffered saline (PBS, 0.01 mol/L, pH 7.4) containing 1‰ Tween-20, the wells were blocked with 200 μL of 5% skim milk powder in PBS at 37 °C for two hours. After the same washing procedure, 50 μL of CYP standard solution and 50 μL of mAb were pipetted into each well and incubated at 37 °C for one hour. After washing five times, 100 μL per well of 0.5‰ horseradish peroxidase-labeled goat anti-mouse IgG antibody in PBS was added and incubated at 37 °C for one hour. After the wells were washed five times, 100 μL per well of fresh substrate solution (0.1 mg/mL 3,3′,5,5′-tetramethylbenzidine and 0.024‰ H2O2 in 0.1 M citrate acid buffer) was added to react at 37 °C for 15 min. Then, 50 μL per well of 0.2 mol/L H2SO4 was used to stop the reaction, and the absorbances were read at 450 nm with a microplate reader.
(§2) After five immunizations, the anti-serum of five mice was collected to determine the serum titer. All mouse serum had high titers ranging from 1:64,000 to 1:256,000. […] Then, the sensitivity of these monoclonal antibodies was evaluated by homologous ic-ELISA. […] The subtype of mAb 2G7H9 was determined as IgG2b by a kit. […]

[2] = test system: anti-CYP mAb 2G7H9; experiment: ic-ELISA based on mAb 2G7H9; type: binding, mouse
Procedure: as §1
Under the optimal conditions, a standard curve was constructed using a series of concentrations of standard solutions (50, 25, 12.5, 6.25, 3.13, 1.56, 0.78, 0.39 and 0.20 ng/mL) to assess the sensitivity of ic-ELISA. The IC50 and linear range (IC10–IC90) were calculated by a logistic equation established with Origin Pro 8.0.
The CRs of the ic-ELISA were calculated with the following equation:CR (%) = (IC50 of CYP/IC50 of analogues) × 100%.

[3] = test system: anti-CYP mAb 1E7D5; experiment: homologous ic-ELISA, hapten 1 coating antigen, mAb 1E7D5; type: binding, mouse; settings: hapten 1 as coating antigen
Procedure: as §1, §2

[4] = test system: monoclonal antibody; design: method as in doi:10.1080/09540105.2013.794328; settings: ic-ELISA based on a monoclonal antibody; cited from earlier work

SMILES: CC1(C)C(C=C(Cl)Cl)C1C(=O)OC(C#N)c1cccc(Oc2ccccc2)c1 (centres unmarked) [CYP, Cypermethrin]
- IC50 [1]: 176 ng/mL (≈ 0.423 µM)
- IC50 ([2]; hapten 5-BSA as coating antigen, before buffer optimization): 5.75 ng/mL (≈ 0.0138 µM)
- IC50 ([2]; homologous ic-ELISA, hapten 1 as coating antigen): 19.14 ng/mL (≈ 0.046 µM)
- IC50 ([2]; homologous ic-ELISA, hapten 1 as coating antigen, listed as Cypermethrin): 19 ng/mL (≈ 0.0456 µM)
- limit of detection (IC10) ([2]; optimal conditions): 0.40 ng/mL
- linear range (IC10–IC90) ([2]; optimal conditions): 0.40 to 7.87 ng/mL
- IC50 ([2]; optimal conditions, coating antigen hapten 5-BSA, PBS pH 7.4, 10% methanol, 0.3 mol/L NaCl): 2.49 ng/mL (≈ 0.00598 µM)
- IC50 ([2]; working buffer: 10% Acetone): 7.99 ng/mL (≈ 0.0192 µM)
- IC50 ([2]; working buffer: 10% Acetonitrile): 8.88 ng/mL (≈ 0.0213 µM)
- IC50 ([2]; working buffer: 10% Dimethyl sulfoxide): 11.03 ng/mL (≈ 0.0265 µM)
- IC50 ([2]; working buffer: 10% Methanol (solvent type comparison)): 7.67 ng/mL (≈ 0.0184 µM)
- IC50 ([2]; working buffer: Methanol 5%): 30.63 ng/mL (≈ 0.0736 µM)
- IC50 ([2]; working buffer: Methanol 20%): 20.59 ng/mL (≈ 0.0495 µM)
- IC50 ([2]; working buffer: Methanol 40%): 24.47 ng/mL (≈ 0.0588 µM)
- IC50 ([2]; working buffer: Na+ 0.07 mol/L): 43.31 ng/mL (≈ 0.104 µM)
- IC50 ([2]; working buffer: Na+ 0.14 mol/L): 9.22 ng/mL (≈ 0.0221 µM)
- IC50 ([2]; working buffer: Na+ 0.2 mol/L): 13.58 ng/mL (≈ 0.0326 µM)
- IC50 ([2]; working buffer: Na+ 0.3 mol/L): 2.42 ng/mL (≈ 0.00581 µM)
- IC50 ([2]; working buffer: Na+ 0.4 mol/L): 2.94 ng/mL (≈ 0.00706 µM)
- IC50 ([2]; working buffer: pH 6): 4.41 ng/mL (≈ 0.0106 µM)
- IC50 ([2]; working buffer: pH 7): 5.24 ng/mL (≈ 0.0126 µM)
- IC50 ([2]; working buffer: pH 7.4): 3.09 ng/mL (≈ 0.00742 µM)
- IC50 ([2]; working buffer: pH 8): 8.06 ng/mL (≈ 0.0194 µM)
- IC50 ([2]; working buffer: pH 9): 4.03 ng/mL (≈ 0.00968 µM)
- IC50 [3]: 314 ng/mL (≈ 0.754 µM)
- IC50 [4]: 1.7 ng/mL (≈ 0.00408 µM)
